Assay results published in US20060276464A1, “Diarylsulfone sulfonamides and use thereof” (Wyeth, priority 2005, published 2006).
Read-outs that look alike come from different tables or passages of the source.

Assays:
SFRP-1 [1] = target: T1, SFRP-1 (Homo sapiens, UniProt Q8N474); assay: Cell-based assay for in vitro measurement of SFRP-1/SARP2 antagonist activity (U2OS cells co-transfected with 16x TCF-tk-Luciferase reporter, Wnt and hSFRP-1); conditions: for fold induction at 10 µM / fold induction at 15 µM: U2OS; for fold induction at 10 µM: read-out: Fold Induction with SFRP-1, U2OS cells, single dose 10 μM, luciferase reporter, fold induction over SFRP-1 control;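 on all read-outs here: U2OS cells co-transfected with a TCF-tk luciferase reporter, a Wnt vector, hSFRP-1 or empty vector and CMV-βgal, luciferase luminescence read in cell lysates alongside βgal activity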
T1 sequence (Q8N474 32-314): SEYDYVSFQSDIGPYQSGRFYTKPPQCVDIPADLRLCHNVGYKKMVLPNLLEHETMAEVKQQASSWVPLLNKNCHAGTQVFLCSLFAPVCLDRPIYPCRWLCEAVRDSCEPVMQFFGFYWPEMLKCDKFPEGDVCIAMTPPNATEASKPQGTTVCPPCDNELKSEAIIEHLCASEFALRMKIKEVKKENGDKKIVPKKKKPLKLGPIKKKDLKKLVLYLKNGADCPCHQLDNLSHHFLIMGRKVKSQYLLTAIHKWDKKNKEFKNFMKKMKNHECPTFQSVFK

SFRP-1 [2] = target: T1, SFRP-1; assay: Fluorescence polarization binding assay (competitive displacement of a probe compound from SFRP-1); conditions: fluorescence anisotropy, 45 nM SFRP-1, 20 nM probe;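 further: test compound competes with a fluorescent probe held by SFRP-1, seen as a drop in probe anisotropy after incubation in darkness, with anisotropy as function of rising compound dose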

Row | IC50 (SFRP-1 [2]) | fold induction at 10 µM (SFRP-1 [1]) | Compound | other results
1 | 9 µM | 2.6 | C[C@@H](NS(=O)(=O)c1cc(S(=O)(=O)c2ccccc2)ccc1Cl)[C@H](O)c1ccccc1 (relative stereo) [Example 676, 2-chloro-N-[(1R*,2R*)-2-hydroxy-1-methyl-2-phenylethyl]-5-(phenylsulfonyl)benzenesulfonamide] | EC50 (SFRP-1 [1]): 8.9 µM
2 | 1 µM | 1.7 | C[C@@H](NS(=O)(=O)c1cc(S(=O)(=O)c2ccccc2)ccc1C(F)(F)F)[C@H](O)c1ccccc1 (relative stereo) [Example 684, N-[(1R*,2R*)-2-hydroxy-1-methyl-2-phenylethyl]-5-(phenylsulfonyl)-2-(trifluoromethyl)benzenesulfonamide] | EC50 (SFRP-1 [1]): 29.3 µM
3 | 13 µM |  | Cc1ccc(S(=O)(=O)c2ccc(F)cc2)cc1S(=O)(=O)NCCN1CCOCC1 [Example 169, 5-[(4-fluorophenyl)sulfonyl]-2-methyl-N-(2-morpholin-4-ylethyl)benzenesulfonamide] | fold induction at 15 µM (SFRP-1 [1]; read-out: Fold Induction with SFRP-1, Conc 15 μM, with SFRP-1, fold induction over SFRP-1 control, single dose): 2.6; fold induction at 15 µM (SFRP-1 [1]; read-out: Fold Induction without SFRP-1, Conc 15 μM, without SFRP-1, single dose): 0.9
4 | 13 µM |  | CC(C)C(CO)NS(=O)(=O)c1cc(S(=O)(=O)c2ccccc2)ccc1C(F)(F)F (stereo not drawn) [Example 769, N-[1-(hydroxymethyl)-2-methylpropyl]-5-(phenylsulfonyl)-2-(trifluoromethyl)benzenesulfonamide] | 
5 |  | 1.2 | O=C(NCCNS(=O)(=O)c1cc(S(=O)(=O)c2ccccc2)ccc1C(F)(F)F)c1ccc(C(F)(F)F)cc1 [Example 781, N-[2-({[5-(Phenylsulfonyl)-2-(trifluoromethyl)phenyl]sulfonyl}amino)ethyl]-4-(trifluoromethyl)benzamide] | 
6 |  | 1.2 | O=C(NCCNS(=O)(=O)c1cc(S(=O)(=O)c2ccccc2)ccc1C(F)(F)F)c1ccc(OC(F)(F)F)cc1 [Example 782, N-[2-({[5-(Phenylsulfonyl)-2-(trifluoromethyl)phenyl]sulfonyl}amino)ethyl]-4-(trifluoromethoxy)benzamide] | 
7 |  | 1.5 | Cc1ccc(S(=O)(=O)c2ccc(F)cc2)cc1S(=O)(=O)NC1CCN(C(=O)OC(C)(C)C)CC1 [Example 789, tert-butyl 4-[({5-[(4-fluorophenyl)sulfonyl]-2-methylphenyl}sulfonyl)amino]piperidine-1-carboxylate] | 
8 |  | 1.1 | CC(C)(C)OC(=O)N1CCCC1CCNS(=O)(=O)c1cc(S(=O)(=O)c2ccccc2)ccc1C(F)(F)F (stereo not drawn) [Example 908, tert-butyl 2-[2-({[5-(phenylsulfonyl)-2-(trifluoromethyl)phenyl]sulfonyl}amino)ethyl]pyrrolidine-1-carboxylate] | 
9 |  | 1.2 | Cc1cc(S(=O)(=O)c2ccccc2)cc(S(=O)(=O)NC2CCN(C(=O)OC(C)(C)C)CC2)c1C [Example 910, tert-butyl 4-({[2,3-dimethyl-5-(phenylsulfonyl)phenyl]sulfonyl}amino)piperidine-1-carboxylate] | 
10 |  | 1.1 | Cc1cc(S(=O)(=O)c2ccccc2)cc(S(=O)(=O)NC2CCNCC2)c1C [Example 922, 2,3-dimethyl-5-(phenylsulfonyl)-N-piperidin-4-ylbenzenesulfonamide] | 
11 |  | 1.8 | COC(=O)c1ccc(CNS(=O)(=O)c2cc(S(=O)(=O)c3ccccc3)ccc2C(C)C)cc1 [Example 951, methyl 4-[({[2-isopropyl-5-(phenylsulfonyl)phenyl]sulfonyl}amino)methyl]benzoate] | 
12 |  | 1.4 | O=S(=O)(NCCc1ccc(Br)cc1)c1cc(S(=O)(=O)c2ccccc2)ccc1C(F)(F)F [Example 960, N-[2-(4-bromophenyl)ethyl]-5-(phenylsulfonyl)-2-(trifluoromethyl)benzenesulfonamide] | 
13 |  | 1.2 | O=S(=O)(NCc1ccc(Br)cc1)c1cc(S(=O)(=O)c2ccccc2)ccc1C(F)(F)F [Example 964, N-(4-bromobenzyl)-5-(phenylsulfonyl)-2-(trifluoromethyl)benzenesulfonamide] | 
14 | 4 µM |  | CN(CCCNS(=O)(=O)c1cc(S(=O)(=O)c2ccccc2)ccc1C(F)(F)F)C(=O)N1CCN(C(=O)OC(C)(C)C)CC1 [Example 974, tert-butyl 4-({methyl[3-({[5-(phenylsulfonyl)-2-(trifluoromethyl)phenyl]sulfonyl}amino)propyl]amino}carbonyl)piperazine-1-carboxylate] | 
15 | 6 µM |  | O=C(O)c1cccc(-c2ccc(CNS(=O)(=O)c3cc(S(=O)(=O)c4ccccc4)ccc3C(F)(F)F)cc2)c1 [Example 976, 4′-[({[5-(phenylsulfonyl)-2-(trifluoromethyl)phenyl]sulfonyl}amino)methyl]biphenyl-3-carboxylic acid] | 
16 | 13 µM |  | CN(CCNS(=O)(=O)c1cc(S(=O)(=O)c2ccccc2)ccc1C(F)(F)F)CC(=O)O [Example 981, N-methyl-N-[2-({[5-(phenylsulfonyl)-2-(trifluoromethyl)phenyl]sulfonyl}amino)ethyl]glycine] | 
17 | 8 µM |  | CN(CCNS(=O)(=O)c1cc(S(=O)(=O)c2ccccc2)ccc1C(F)(F)F)CCC(=O)O [Example 982, N-methyl-N-[2-({[5-(phenylsulfonyl)-2-(trifluoromethyl)phenyl]sulfonyl}amino)ethyl]-β-alanine] | 
18 | 0.8 µM |  | N#Cc1cccc(N2CCC(NS(=O)(=O)c3cc(S(=O)(=O)c4ccccc4)ccc3C(F)(F)F)CC2)c1 [Example 986, N-[1-(3-cyanophenyl)piperidin-4-yl]-5-(phenylsulfonyl)-2-(trifluoromethyl)benzenesulfonamide] | 
19 | 3 µM |  | CN(CCNS(=O)(=O)c1cc(S(=O)(=O)c2ccccc2)ccc1C(F)(F)F)C(=O)N(C)C1CCN(C(=O)OC(C)(C)C)CC1 [Example 989, tert-butyl 4-[methyl({methyl[2-({[5-(phenylsulfonyl)-2-(trifluoromethyl)phenyl]sulfonyl}amino)ethyl]amino}carbonyl)amino]piperidine-1-carboxylate] | 
20 | 2.3 µM |  | O=S(=O)(NCc1cccc(Br)c1)c1cc(S(=O)(=O)c2ccccc2)ccc1C(F)(F)F [Example 994, N-(3-bromobenzyl)-5-(phenylsulfonyl)-2-(trifluoromethyl)benzenesulfonamide] | 
21 | 4 µM |  | CN(C(=O)NCCNS(=O)(=O)c1cc(S(=O)(=O)c2ccccc2)ccc1C(F)(F)F)C1CCN(C(=O)OC(C)(C)C)CC1 [Example 1045, tert-butyl 4-[methyl({[2-({[5-(phenylsulfonyl)-2-(trifluoromethyl)phenyl]sulfonyl}amino)ethyl]amino}carbonyl)amino]piperidine-1-carboxylate] | 

Row | Compound | IC50 (SFRP-1 [2]) | fold induction at 10 µM (SFRP-1 [1]) | other results
22 | CC(C)c1ccc(S(=O)(=O)c2ccc(N3C[C@@H](C)NC[C@@H]3C)cc2)cc1S(=O)(=O)NC1CCOCC1 (relative stereo) [Example 627, 5-({4-trans-2,5-dimethylpiperazin-1-ylphenyl}sulfonyl)-2-isopropyl-N-(tetrahydro-2H-pyran-4-yl)benzenesulfonamide] | 5 µM |  | Fold Induction with SFRP-1 (SFRP-1 [1]; Conc 15 μM, single dose, luciferase reporter, fold induction over SFRP-1 control, cells with SFRP-1): 3.4 fold; Fold Induction without SFRP-1 (SFRP-1 [1]; Conc 15 μM, single dose, luciferase reporter, cells without SFRP-1 (specificity control)): 1.1 fold
